Experimental findings from US20240101552A1, “CARBONYL HETEROCYCLIC COMPOUND AND APPLICATION THEREOF” (SHANGHAI PHARMACEUTICALS HOLDING CO., LTD., priority 2020, published 2024) are described below.

pKd: −log10 of the molar value. Entries after “also recorded” stand apart in the source; their conditions may differ.

Broadly, the pKd is the Kd on a negative log10 scale, so that one unit is a factor of ten. Read a low pKd as a large Kd.

Experiment [1] concerns TNBS-induced colitis in mice. Kind of experiment: Alleviating effect on TNBS-induced colitis in mice, study (II). The note with it: for colon weight (FIG. 18B) / weight-to-length ratio of colon (FIG. 18C): L compounds PO 50 mpk BID, Mesalazine PO 100 mpk QD. The class given is in vivo, Balb/c mice. Here is the method:
Sixty female Balb/c mice, weighing about 18 g and 8-10 weeks old, were randomly divided into twelve groups, including eleven model groups and one Sham control group. The administration was started on Day 1 and ended on Day 7, with the compounds prepared once a day, as detailed in Table 1 for route and frequency of administration, and Table 2 for compound preparation and volume of administration.
(§1) Balb/c mice weighing about 18-20 g were anesthetized with 0.25 mL of 1.25% Avertin on Day 0. The mice in the model group were perfused rectally with 150 μL of 1% TNBS solution (ethanol with a final concentration of 50%). The mice in the Sham control group were perfused rectally with 50% ethanol on Day 0.
(§2) The mouse colon was photographed, measured for the length, and weighed after the contents were removed. The colon of each mouse was then cut longitudinally at ½, rolled in a uniform direction by Swiss-roll method and fixed in neutral paraformaldehyde.
(§3) The DAI scoring consisted of 3 parts, taking the method of mixed scoring of weight change, stool and blood in stool, and the specific DAI scoring criteria were shown in Table 3. Throughout the experiment, the DAI scoring of all mice was done by the same person to ensure the scale consistency of the scoring.
The experimental data were statistically analyzed by ANOVA method, and data of other groups and the Vehicle (PO, QD) group were analyzed by Dunnett's test to compare data of multiple groups, *p<0.05, **p<0.01, ***p<0.005, ****p<0.0001

In experiment [2] the test system is TNBS-induced colitis in mice. Kind of experiment: Alleviating effect on TNBS-induced enteritis (colitis) in mice, study (I). The note with it: vs Vehicle group, Mesalamine PO 100 mpk QD. The class given is in vivo, Balb/c mice. Here is the method: Preparation method of L56: an appropriate amount of L56 compound was weighed into a brown sample vial, added with a certain volume of solvent 95% (20% HP-β-CD)+5% (10% sodium benzoate), the mixture was vortexed for 1 minute, and dissolved ultrasonically. The compound was prepared once a day.
Preparation method of L30: an appropriate amount of L30 compound was weighed into a brown sample vial, added with a certain volume of solvent 95% (20% HP-β-CD)+5% (10% sodium benzoate), the mixture was vortexed for 1 minute, and dissolved ultrasonically. The compound was prepared once a day.
Preparation method of Mesa (Mesalamine): an appropriate amount of Mesalamine (Selleck) was weighed into a brown sample vial, added with a certain volume of solvent 0.5% CMC-Na, the mixture was vortexed for 1 minute, and dissolved ultrasonically. The compound was prepared once a day.
Fifty-six female Balb/c mice, weighing about 18 g and 8-10 weeks old, were randomly divided into seven groups, including six model groups and one Sham control group. The administration was started on Day 1 and ended on Day 7, with the compounds prepared once a day, as detailed in Table 1 for route and frequency of administration, and Table 2 for compound preparation and volume of administration.
as §1, §2, §3
The histopathological scoring was performed by a professional pathologist on the clinical pathology platform in a double-blind manner.
The experimental data were statistically analyzed by ANOVA method, positive drug Mesalamine (PO, 100 mpk, QD) group, L56 (PO, 50 mpk, BID) group, L30 (PO, 50 mpk, BID) group, *p<0.05, **p<0.01, ***p<0.005, ****p<0.0001

The target in another experiment is LANCL2 (Homo sapiens (Human), UniProt Q9NS86). The experiment is described as follows: SPR (BIACORE S200) kinetic determination of LANCL2-small molecule interactions. The class given is binding. Conditions: for pKd: immobilized LANCL2, 1:1 binding model, pH 6.5, 25° C.; for Rmax (RU): maximum binding force. Here is the method: 1.1 Reagent Materials • Ligand: LANCL2 • Running buffer: 20 mM MES, 150 mM NaCl, 0.05% P20, pH 6.5, 1% DMSO
Injection conditions for small molecule compounds: a flow rate of 30 μL/min, a binding time of 60 s, a dissociation time of 300 s.
Running buffer: 20 mM MES, 150 mM NaCl, 0.05% P20, pH 6.5, 1% DMSO.
Sample chamber temperature: 25° C.; analysis temperature: 25° C.
Kinetic determination of LANCL2-small molecule interactions was performed. The kinetic parameters of small molecules BT-11 and L-1 to 60 (analytes) binding to LANCL2 (ligand) were determined using BIACORE S200. Data were generated in triplicate in a dose-dependent manner (5-8 titration points) and analyzed to determine binding models (Langmuir, conformational shifts, etc.), real-time association and dissociation constants, and equilibrium dissociation constants. SPR technology allows the validation of specific LANCL2-phytochemical interactions as well as an increased insight into the gold standard of binding mechanisms and rates. Experiments were performed on carboxymethyl polydextrose (CM5) sensor chips by amine-coupled covalent attachment of LANCL2. Data were analyzed with BIACORE S200T200 evaluation software (version 1), so as to determine affinity binding constants (KD) using a 1:1 binding model.
An optical technique for detecting molecular interactions, SPR, was used to measure the binding affinity between LANCL2 and a ligand thereof (compound to be tested). Purified recombinant LANCL2 protein was immobilized on a BIACORE sensor chip and small molecules were injected onto the protein surface using an equipment of microfluidic system. The change in total mass on the chip surface, corresponding to a small binding to the protein, was measured. […] The equilibrium dissociation constant (Kd) was often used to describe the affinity between a ligand and a protein, such as affinity degree of a ligand binding to a specific protein. Ligand-protein affinity was affected by non-covalent intermolecular interactions between two molecules, such as hydrogen bonding, electrostatic interactions, hydrophobic bonds and van der Waals forces. The steady-state affinity (Kd) for each interaction could be measured by plotting equilibrium binding levels against compound concentrations.
A general note: Surface plasmon resonance follows binding to a sensor surface in real time, without labels.

Setting [3] is: vs Vehicle group, PO, 50 mpk, BID.

Sequence of LANCL2 (Q9NS86 whole entry, species assumed): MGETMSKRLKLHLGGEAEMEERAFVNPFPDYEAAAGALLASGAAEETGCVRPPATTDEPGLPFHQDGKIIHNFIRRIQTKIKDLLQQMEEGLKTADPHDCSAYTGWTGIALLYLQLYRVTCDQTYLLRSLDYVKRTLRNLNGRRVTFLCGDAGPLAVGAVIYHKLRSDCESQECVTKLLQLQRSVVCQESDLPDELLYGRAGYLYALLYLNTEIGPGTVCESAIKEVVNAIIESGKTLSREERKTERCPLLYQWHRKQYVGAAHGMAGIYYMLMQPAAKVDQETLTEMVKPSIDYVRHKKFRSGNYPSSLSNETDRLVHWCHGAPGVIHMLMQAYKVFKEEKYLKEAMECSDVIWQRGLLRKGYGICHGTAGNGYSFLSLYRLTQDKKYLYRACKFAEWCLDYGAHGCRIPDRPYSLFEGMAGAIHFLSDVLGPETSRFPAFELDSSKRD

On to `Nc1ccc(O)c(C(=O)O)c1` [Mesalamine], for which, in experiment [1] (vs Vehicle group), the “colon weight (FIG. 18B)” value is reported as “less colon weight” and the “weight-to-length ratio of colon (FIG. 18C)” value is “significantly lower”. Moreover, in experiment [2] (L56 PO 50 mpk BID), the “colon tissue pathological scores (HE staining)” value is “lower colon tissue pathological scores with a statistically significant difference”. In experiment [2] (L compounds PO 50 mpk BID), the “DAI scores (FIG. 13B)” value is “significantly lower”, the “colon length (FIG. 14B)” value was “significantly more colon length”, the “colon weight (FIG. 14C)” value is “less colon weight” and the “weight loss of the mice (FIG. 13A)” value is reported as “significantly slowed down”. In experiment [2] (L compounds PO 50 mpk BID), the “weight-to-length ratio of colon (FIG. 14A)” value is recorded as “significantly lower”.
`O=C(c1cccc(-c2nc3ccccc3[nH]2)n1)N1CCN(C(=O)c2cccc(-c3nc4ccccc4[nH]3)n2)CC1` [BT-11, reference compound]: at LANCL2, the pKd is 5.35 and the “Rmax (RU)” value was found to be 3.6 RU. Moreover, in experiment [1] (setting [3]), the “weight loss of the mice (FIG. 16A)” value is on record as “not significantly slowed down”.
`O=C(NC1C2CN(C(=O)c3cccc(-c4nc5ccccc5[nH]4)n3)CC21)c1cccc(-c2nc3ccccc3[nH]2)n1` [Embodiment L-11, N-(3-(6-(1H-benzo[d]imidazol-2-yl)picolinoyl)-3-azabicyclo[3.1.0]hexan-6-yl)-6-(1H-benzo[d]imidazol-2-yl)pyridinecarboxamide]: at LANCL2, the “binding activity compared with positive reference compound BT-11” value was “better binding activities than the positive reference compound BT-11”, the negative logarithm of the Kd (pKd) is 5.44 and the “Rmax (RU)” value was 4.2 RU. Further, in experiment [1] (PO, 50 mpk, BID), the “alleviation of TNBS-induced colitis / inflammation (conclusion)” value is given as “could significantly alleviate the occurrence of inflammation in mice with TNBS-induced colitis; also recorded: could effectively alleviate TNBS-induced colitis in mice”; the “alleviation of symptoms of diarrhea and blood in stool” value was “could effectively alleviate the symptoms of diarrhea and blood in stool in TNBS model mice”; the “alleviation of weight loss caused by TNBS-induced colitis (body weight changes and DAI scores combined)” value was “could effectively alleviate the weight loss in mice caused by TNBS-induced colitis”. For the same molecule, in experiment [1] (vs Vehicle group), the “colon weight (FIG. 18B)” value is on record as “less colon weight” and the “weight-to-length ratio of colon (FIG. 18C)” value is given as “significantly lower”. Further, in experiment [1] (setting [3]), the “DAI scores (FIG. 16B)” value was “significantly lower”, the “blood in stool score (FIG. 17B)” value is given as “significantly slowed down”, the “colon length (FIG. 18A)” value is listed as “significantly more colon length” and the “diarrhea score (FIG. 17A)” value is listed as “significantly slowed down”. The “weight loss of the mice (FIG. 16A)” value in experiment [1] (setting [3]) is “significantly slowed down”.
On to `CN1CCC2(CC1)CCN(c1ccc(NC(=O)C3CCN(C(=O)c4cccc(-c5nc6ccccc6[nH]5)n4)C3)cc1)CC2` [Embodiment L-35, 1-(6-(1H-benzo[d]imidazol-2-yl)picolinoyl)-N-(4-(9-methyl-3,9-diazaspiro[5.5]undecan-3-yl)phenyl)pyrrolidine-3-carboxamide], for which, at LANCL2, the negative logarithm of the Kd (pKd) is 4.18 and the “Rmax (RU)” value came out at 14.4 RU.
Taken in the same sequence, the figures for `CCCCOc1ccc(C(=O)NC2CCN(C(=O)c3cccc(-c4cn5ccccc5n4)c3)CC2)cc1` [Embodiment L-107, 4-Butoxy-N-(1-(3-(imidazo[1,2-a]pyridin-2-yl)benzoyl)piperidin-4-yl)benzamide] were 5.21 and 4.5 RU.
Regarding `O=C(c1cccc(-c2cn3ccccc3n2)c1)N1CCC2(CC1)CCN(C(=O)c1cccc(Nc3ccccc3)n1)CC2` [Embodiment L-72, (9-(3-(imidazo[1,2-a]pyridin-2-yl)benzoyl)-3,9-diazaspiro[5.5]undecan-3-yl)(6-(phenylamino)pyridin-2-yl)methanone], on LANCL2, the pKd is 5.16 and the “Rmax (RU)” value worked out at 5.3 RU.
Taken in the same sequence, the figures for `O=C(c1cccc(-c2nc3ccccc3[nH]2)n1)N1CC2CN(C(=O)c3ccc4ccccc4n3)CC2C1` [Embodiment L-69, (5-(6-(1H-benzo[d]imidazol-2-yl)picolinoyl)hexahydropyrrolo[3,4-c]pyrrol-2(1H)-yl)(quinolin-2-yl)methanone] were 4.66 and 6.1 RU.
With `O=C(c1cccc(-c2cn3ccccc3n2)c1)N1CCC2(CC1)CCN(C(=O)c1cccc(-c3cn4ccccc4n3)c1)CC2` [Embodiment L-73, (3,9-diazaspiro[5.5]undecane-3,9-diyl)bis((3-(imidazo[1,2-a]pyridin-2-yl)phenyl)methanone)], on LANCL2, the pKd was 5.06 and the “Rmax (RU)” value is 4.5 RU.
In the case of `O=C(c1cccc(-c2nc3ccccc3[nH]2)n1)N1CC2CN(C(=O)c3n[nH]c4ccccc34)CC2C1` [Embodiment L-120, (5-(6-(1Hbenzo[d]imidazol-2-yl)picolinoyl)hexahydropyrrolo[3,4-c]pyrrol-2(1H)-yl)(1H-indazol-3-yl)methanone], at LANCL2, the negative-log Kd (pKd) was 4.66 and the “Rmax (RU)” value was found to be 8.9 RU.
Taken in the same sequence, the figures for `O=C(c1cnc2ccccc2c1)N1CCN(C(=O)c2cccc(-c3nc4ccccc4[nH]3)n2)CC1` [Embodiment L-108, (4-(6-(1H-benzo[d]imidazol-2-yl)picolinoyl)piperazin-1-yl)(quinolin-3-yl)methanone] were 4.32 and 13.7 RU.
Taken in the same sequence, the figures for `O=C(c1cccc(-c2nc3ccccc3[nH]2)n1)N1CCC2(CC1)CCN(C(=O)c1cccc(-c3nc4ccccc4[nH]3)n1)C2` [Embodiment L-59, (2,8-diaza[4.5]decane-2,8-diyl)bis(6-(1H-benzo[d]imidazol-2-yl)pyridin-2-yl)methanone] were 4.83 and 3.6 RU.
The matching figures for `O=C(c1cccc(-c2nc3ccccc3[nH]2)n1)N1CC2CN(C(=O)C3CCC(c4ccc(Cl)cc4)CC3)CC2C1` [Embodiment L-126, (5-(6-(1Hbenzo[d]imidazol-2-yl)picolinoyl)hexahydropyrrolo[3,4-c]pyrrol-2(1H)-yl)(4-(4-chlorophenyl)cyclohexyl)methanone]: 4.39 and 3.3 RU.
`O=C(NC1CCN(C(=O)c2cccc(-c3nc4ccccc4[nH]3)n2)CC1)c1ccnc(Nc2ccccc2)n1` [Embodiment L-19]: at LANCL2, the negative-log Kd (pKd) was 4.60 and the “Rmax (RU)” value worked out at 9.7 RU.
Taken in the same sequence, the figures for `O=C(c1ccc(F)c(Cl)c1)N1CC2CN(C(=O)c3cccc(-c4nc5ccccc5[nH]4)n3)CC2C1` [Embodiment L-124, (5-(6-(1Hbenzo[d]imidazol-2-yl)picolinoyl)hexahydropyrrolo[3,4-c]pyrrol-2(1H)-yl)(3-chloro-4-fluorophenyl)methanone] were 5.06 and 4.8 RU.
